PMC6582486, “Stapled EGFR peptide reduces inflammatory breast cancer and inhibits additional HER-driven models of cancer” (Journal of Translational Medicine, 2019)
Read-outs that look alike come from different tables or passages of the source. Where a SMILES comes first, the peptide text is derived from it. Bridges are numbered along the chain shown (N, C = ends). Where no end group is shown, it is not given here. [ ]: non-standard residue; d: D form. R8 = C=CCCCCCC[C@@](C)(N)C(=O)O; S5 = C=CCCC[C@](C)(N)C(=O)O

Legend:
[1] = system: MDA-MB-468 breast cancer cells; assay type: cell-based, human; settings: 24 h
From the text: Fig. 1 Hydrocarbon stapling leads to increased EJ1 activity in comparison to HER-directed monoclonal therapies. a EJ1 sequence with PTD4 domain (underlined) corresponding to EGFR juxtamembrane domain sequence 643–663. Stabilized alpha helix (SAH) variations 1–5 beneath, with asterisks (*) indicating sites of staple. Control peptide (CP) with altered residues indicated by double underline. Stapled control (5) asterisks (*) indicate sites of staple. b Cartoon representation of EJ1 structure, with staple variation 5 highlighted. Positively charged residues indicated in blue, negatively charged residues in red. c Cartoon representation of CP structure, with staple variation highlighted. d Cell viability assay performed in MDA-MB-468 cells after 24 h comparing unstapled EJ1 versus staple variations SAH1, SAH4, and SAH5, with increasing concentrations. e Visualization of MDA-MB-468 cells untreated, treated with 10 µM EJ1, and 10 µM SAH5-EJ1 after 60 min. Scale bars represent 50 µm. f–h Cell viability assay performed in MDA-MB-468, MCF10A, or CHO cells over 3 days comparing treatment with Sapitinib (blue lines), SAH5-EJ1 (red lines), and SAH5-CP (grey lines). […] Data shown in d, f, g–i represent mean ± percent difference of assays performed in triplicate 1000–3000 cells were plated in 96-well plates (Falcon; Corning, NY) and allowed to adhere for 24–48 h prior to therapeutic introduction. Compounds were added and incubated on cells for 3 days in serum-containing media, followed by 2 h treatment with MTT (Sigma M5655) with the resulting formazan solubilized in DMSO. Absorbance was read at 540 nm by plate reader (uQuant, Bio-Tek Instruments). P-values were calculated from a one-way ANOVA.

[2] = cited from earlier work
From the text: Despite variations in extracellular ligand binding abilities and intracellular tyrosine kinase activity, HER1-3 share homology in their juxtamembrane domain [15]. Within the juxtamembrane domain are sequences responsible for targeting HER proteins to the nucleus, binding to calcium/calmodulin, trafficking to the basolateral domain from the trans-Golgi network, and dimerization, an event required for HER activation and downstream signaling.

[3] = system: SUM149 inflammatory breast cancer cells; assay type: cell-based; settings: SUM149, 10 µM
Description: 1000–3000 cells were plated in 96-well plates (Falcon; Corning, NY) and allowed to adhere for 24–48 h prior to therapeutic introduction. Compounds were added and incubated on cells for 3 days in serum-containing media, followed by 2 h treatment with MTT (Sigma M5655) with the resulting formazan solubilized in DMSO. Absorbance was read at 540 nm by plate reader (uQuant, Bio-Tek Instruments). P-values were calculated from a one-way ANOVA.
Fig. 4 SAH5-EJ1 effectively treats models of basal and inflammatory breast cancers while increasing survival. a Changes in tumor burden in breast cancer PDX mouse model TM01278 with various concentrations of intravenous SAH5-EJ1. Control represents water as a vehicle control. *p < 0.05 (Control vs 1 µg/g); **p < 0.01 (Control vs 1 µg/g and vs 10 µg/g). N = 6 for each condition. b Kaplan–Meier curve of breast PDX mouse model treated with control (blue) or either 1 or 10 µg/g SAH5-EJ1 (green and red, respectively) (red asterisks indicate time point at which mice could no longer receive injections due to site toxicity). Data shown represent mean. N = 6 for all groups. c Cell viability assay performed in SUM149 cells over 3 days comparing treatment with Sapitinib (blue) to SAH5-EJ1 (red) and SAH5-CP (grey). Solid lines represent 24 h; dashed lines represent 72 h. Data shown represent mean ± percent difference of assays performed in triplicate. d Kaplan–Meier curve of inflammatory breast cancer SUM149-injected mouse model treated with injected control (water) (blue) or either 0.5 or 5 µg/g SAH5-EJ1 (green and red, respectively). Data shown represent mean. N = 8 for all groups. e Changes in tumor burden in SUM149-generated tumors with various doses of SAH5-EJ1. Control represents water (blue). Arrow indicates transition from intravenous (IV) SAH5-EJ1 injections to intraperitoneal (IP) on day 66. **p < 0.01 (Control vs 0.5 µg/g and vs 5 µg/g). Data shown represent mean ± standard deviation. N = 8 for all groups. f Images of mouse tumors taken on Day 116. Arrowheads indicate tumor site. Representative images selected. […]

MCF10A breast cells = experiment: Cell viability assay (MTT), MCF10A; assay type: cell-based, human; settings: 72 h of treatment, maximum reduction
From the text: (§1) Fig. 1 Hydrocarbon stapling leads to increased EJ1 activity in comparison to HER-directed monoclonal therapies. a EJ1 sequence with PTD4 domain (underlined) corresponding to EGFR juxtamembrane domain sequence 643–663. Stabilized alpha helix (SAH) variations 1–5 beneath, with asterisks (*) indicating sites of staple. Control peptide (CP) with altered residues indicated by double underline. Stapled control (5) asterisks (*) indicate sites of staple. b Cartoon representation of EJ1 structure, with staple variation 5 highlighted. Positively charged residues indicated in blue, negatively charged residues in red. c Cartoon representation of CP structure, with staple variation highlighted. d Cell viability assay performed in MDA-MB-468 cells after 24 h comparing unstapled EJ1 versus staple variations SAH1, SAH4, and SAH5, with increasing concentrations. e Visualization of MDA-MB-468 cells untreated, treated with 10 µM EJ1, and 10 µM SAH5-EJ1 after 60 min. Scale bars represent 50 µm. f–h Cell viability assay performed in MDA-MB-468, MCF10A, or CHO cells over 3 days comparing treatment with Sapitinib (blue lines), SAH5-EJ1 (red lines), and SAH5-CP (grey lines). […] Absorbance was read at 540 nm by plate reader (uQuant, Bio-Tek Instruments). P-values were calculated from a one-way ANOVA.

CHO cells = experiment: Cell viability assay (MTT), CHO; assay type: cell-based, Chinese Hamster; settings: up to 3 days
From the text: as §1

CC[C@H](C)[C@H](NC(=O)[C@H](Cc1c[nH]cn1)NC(=O)[C@H](CCCNC(=N)N)NC(=O)[C@H](CCCNC(=N)N)NC(=O)[C@H](CCCNC(=N)N)NC(=O)[C@H](CCSC)NC(=O)[C@H](Cc1ccccc1)NC(=O)[C@H](C)NC(=O)[C@H](CCCNC(=N)N)NC(=O)[C@H](C)NC(=O)[C@H](CCC(N)=O)NC(=O)[C@H](CCCNC(=N)N)NC(=O)[C@H](C)NC(=O)[C@H](C)NC(=O)[C@H](C)NC(=O)[C@H](CCCNC(=N)N)NC(=O)[C@H](C)NC(=O)[C@@H](N)Cc1ccc(O)cc1)C(=O)N[C@]1(C)CCCCCCC=CCCC[C@@](C)(C(=O)N[C@@H](CC(C)C)C(=O)N[C@@H](CC(C)C)C(=O)N[C@@H](CCC(N)=O)C(=O)N[C@@H](CCC(=O)O)C(=O)N[C@@H](CCCNC(=N)N)C(=O)N[C@@H](CCC(=O)O)C(N)=O)NC(=O)[C@H](CCCNC(=N)N)NC(=O)[C@H](CC(C)C)NC(=O)[C@H]([C@@H](C)O)NC(=O)[C@H](CCCNC(=N)N)NC(=O)[C@H](CCCCN)NC(=O)[C@H](CCCNC(=N)N)NC1=O [SAH1-EJ1] (H-YARAAARQARAFMRRRHI[R8]RKRTLR[S5]LLQERE-NH2; staple 19-26)
IC50 [1]: 10 µM

CC[C@H](C)[C@@H]1NC(=O)[C@H](Cc2c[nH]cn2)NC(=O)[C@H](CCCNC(=N)N)NC(=O)[C@H](CCCNC(=N)N)NC(=O)[C@H](CCCNC(=N)N)NC(=O)[C@](C)(NC(=O)[C@H](Cc2ccccc2)NC(=O)[C@H](C)NC(=O)[C@H](CCCNC(=N)N)NC(=O)[C@H](C)NC(=O)[C@H](CCC(N)=O)NC(=O)[C@H](CCCNC(=N)N)NC(=O)[C@H](C)NC(=O)[C@H](C)NC(=O)[C@H](C)NC(=O)[C@H](CCCNC(=N)N)NC(=O)[C@H](C)NC(=O)[C@@H](N)Cc2ccc(O)cc2)CCCCCCC=CCCC[C@@](C)(C(=O)N[C@@H](CCCCN)C(=O)N[C@@H](CCCNC(=N)N)C(=O)N[C@H](C(=O)N[C@@H](CC(C)C)C(=O)N[C@@H](CCCNC(=N)N)C(=O)N[C@@H](CCCNC(=N)N)C(=O)N[C@@H](CC(C)C)C(=O)N[C@@H](CC(C)C)C(=O)N[C@@H](CCC(N)=O)C(=O)N[C@@H](CCC(=O)O)C(=O)N[C@@H](CCCNC(=N)N)C(=O)N[C@@H](CCC(=O)O)C(N)=O)[C@@H](C)O)NC(=O)[C@H](C(C)C)NC1=O [SAH4-EJ1] (H-YARAAARQARAF[R8]RRRHIV[S5]KRTLRRLLQERE-NH2; staple 13-20)
IC50 [1]: 10 µM

YARAAARQARAFMRRRHIVRKRTLRRLLQERE [EJ1]
IC50 [1]: 18 µM | time to degradation when introduced to plasma [2]: less than 5 min

CNC(=O)CN1CCC(Oc2cc3c(Nc4cccc(Cl)c4F)ncnc3cc2OC)CC1 [Sapitinib, reference compound]
cell viability ([3]; 24 h): no reduction in cell viability | cell viability ([3]; 3 days): 35% | reduction of cell viability (MCF10A breast cells): ≤ 70% | efficacy / response in words (CHO cells): limited efficacy
